Paper PMC7044277 (Nature Communications, 2020)
Values joined by “and” are separate entries in the source; they are usually repeats but may differ in a detail not shown here. Identical values can stand only once.

Assays:
Format in all cases: cell-based
[1] = target: T1, 320 non-olfactory GPCRs (Homo sapiens, UniProt P50052)
T1 construct: expressed in transfected cells; host or cells: HTLA cells

[2] = target: T2, 320 non-olfactory GPCRs (Homo sapiens, UniProt P51685)
T2 construct: expressed in transfected cells; host or cells: HTLA cells
T2 sequence (P51685 whole entry): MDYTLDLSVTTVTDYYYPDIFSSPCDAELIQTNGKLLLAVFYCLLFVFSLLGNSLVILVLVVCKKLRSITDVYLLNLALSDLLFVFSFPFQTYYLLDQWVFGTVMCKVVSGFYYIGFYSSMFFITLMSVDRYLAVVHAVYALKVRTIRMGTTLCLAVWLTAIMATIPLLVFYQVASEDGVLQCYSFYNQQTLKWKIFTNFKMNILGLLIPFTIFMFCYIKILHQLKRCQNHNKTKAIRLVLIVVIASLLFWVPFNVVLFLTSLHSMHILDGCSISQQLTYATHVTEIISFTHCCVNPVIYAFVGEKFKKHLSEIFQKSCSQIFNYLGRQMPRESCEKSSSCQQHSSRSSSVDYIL

[3] = target: T3, 320 non-olfactory GPCRs (Homo sapiens, UniProt Q86VZ1); conditions: receptor P2RY8; replicate values, Fig_4g
T3 construct: expressed in transfected cells; host or cells: HTLA cells
T3 sequence (Q86VZ1 whole entry): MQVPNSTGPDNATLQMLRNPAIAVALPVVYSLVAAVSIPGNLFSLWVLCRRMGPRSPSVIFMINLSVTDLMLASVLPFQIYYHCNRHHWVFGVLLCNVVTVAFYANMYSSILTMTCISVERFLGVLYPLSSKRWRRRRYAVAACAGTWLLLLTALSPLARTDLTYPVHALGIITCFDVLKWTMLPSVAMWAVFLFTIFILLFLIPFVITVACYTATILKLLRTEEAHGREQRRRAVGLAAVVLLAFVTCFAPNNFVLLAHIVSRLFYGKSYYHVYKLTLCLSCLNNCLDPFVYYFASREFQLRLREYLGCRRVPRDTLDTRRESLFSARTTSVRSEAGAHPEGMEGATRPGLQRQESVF

[4] = target: DRD2 (D2 long receptor) (Homo sapiens, UniProt P14416); assay: Gαi1-γ2 dissociation BRET assay, HEK293T; conditions: agonist
Chain of DRD2 (D2 long receptor) (P14416 whole entry): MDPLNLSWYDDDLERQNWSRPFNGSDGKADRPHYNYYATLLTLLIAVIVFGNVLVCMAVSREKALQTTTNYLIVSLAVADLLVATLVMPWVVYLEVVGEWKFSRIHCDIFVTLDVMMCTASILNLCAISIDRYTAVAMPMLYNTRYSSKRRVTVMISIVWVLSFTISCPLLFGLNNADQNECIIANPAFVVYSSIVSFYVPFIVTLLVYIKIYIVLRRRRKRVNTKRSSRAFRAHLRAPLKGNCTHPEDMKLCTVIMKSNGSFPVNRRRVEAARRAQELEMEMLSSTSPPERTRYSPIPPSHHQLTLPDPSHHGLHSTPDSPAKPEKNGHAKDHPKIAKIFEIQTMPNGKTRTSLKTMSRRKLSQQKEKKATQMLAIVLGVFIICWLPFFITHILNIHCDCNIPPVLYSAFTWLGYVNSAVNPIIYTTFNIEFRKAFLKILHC

[5] = target: DRD3 F1063.28A (Homo sapiens, UniProt P35462, F106A); assay: cell-based
Chain of DRD3 F1063.28A (P35462 whole entry F106A): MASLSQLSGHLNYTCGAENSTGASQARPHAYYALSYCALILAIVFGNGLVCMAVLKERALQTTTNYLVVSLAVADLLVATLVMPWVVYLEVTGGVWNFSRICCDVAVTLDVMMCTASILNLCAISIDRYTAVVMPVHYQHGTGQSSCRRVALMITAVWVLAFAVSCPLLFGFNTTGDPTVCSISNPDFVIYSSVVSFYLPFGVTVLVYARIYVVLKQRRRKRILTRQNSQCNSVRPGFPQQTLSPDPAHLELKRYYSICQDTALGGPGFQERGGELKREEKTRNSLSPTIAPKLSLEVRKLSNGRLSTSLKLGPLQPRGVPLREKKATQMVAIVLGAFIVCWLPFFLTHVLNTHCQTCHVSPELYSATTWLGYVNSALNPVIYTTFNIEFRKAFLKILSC
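For Fold of Basal in this document: compound tested at 1 µM final concentration.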
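For GPCRome agonism screen response in this document: fold over basal response of each receptor without drug.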

T1 sequence (P50052 whole entry): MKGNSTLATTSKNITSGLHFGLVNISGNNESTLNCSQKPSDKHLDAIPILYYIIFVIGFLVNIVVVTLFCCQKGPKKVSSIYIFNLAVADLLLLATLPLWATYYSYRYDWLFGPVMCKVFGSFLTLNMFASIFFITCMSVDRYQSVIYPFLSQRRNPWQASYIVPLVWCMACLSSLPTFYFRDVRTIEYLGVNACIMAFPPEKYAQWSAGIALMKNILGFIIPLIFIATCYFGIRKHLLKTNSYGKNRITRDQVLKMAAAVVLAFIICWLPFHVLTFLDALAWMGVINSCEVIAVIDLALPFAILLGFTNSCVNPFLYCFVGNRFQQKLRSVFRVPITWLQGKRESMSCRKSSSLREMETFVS

With CCOc1cccc2cc(C(C)NCC3(O)CCCCC3)oc12 (centres unmarked) [O4LE6] the “Fold of Basal” value [1] was 1.003 and 1.182 and 1.322 and 1.107, the “Fold of Basal” value [2] was 1.057 (2×) and 0.6946 and 0.6945 and the “GPCRome agonism screen response” value [3] was 0.862 and 0.8339 and 1.83 and 1.383. The EC50 [4] was 24.1 nM and the EC50 [5] was greater than 10000 nM.
